These are literature values, as cited in patent publication US9956241B2, “Application of American Ginseng to enhance neurocognitive function” (priority 2009, dated 2018).

In data set [1] the test system is LTP in the hippocampal formation. The following applies: in vivo; rats.
Data set [2] relates to brain serotonin concentrations. As to conditions: in vivo.
Data set [3] relates to central cholinergic nerve endings.
Data set [4] deals with choline acetyltransferase and nerve growth factor messenger RNA. The following applies: rat brains.
Data set [5] deals with choline acetyltransferase. The following applies: rodent brains.
For data set [6], the system named is plasma corticosterone. As to conditions: rodents.
Data set [7] has as its system synaptosomal uptake of norepinephrine, dopamine, serotonin and GABA.
In data set [8] the test system is corticosterone secretion.
Data set [9] has as its system human neuronal nicotinic acetylcholine receptors.

As to `CC(C)=CCC[C@](C)(O[C@@H]1O[C@H](CO[C@@H]2O[C@H](CO)[C@@H](O)[C@H](O)[C@H]2O)[C@@H](O)[C@H](O)[C@H]1O)[C@H]1CC[C@]2(C)[C@@H]1[C@H](O)C[C@@H]1[C@@]3(C)CC[C@H](O[C@@H]4O[C@H](CO)[C@@H](O)[C@H](O)[C@H]4O[C@@H]4O[C@H](CO)[C@@H](O)[C@H](O)[C@H]4O)C(C)(C)[C@@H]3CC[C@]12C` [Rb1, ginsenoside Rb1], the “LTP in the hippocampal formation” value in data set [1] is reported as “modulation of LTP”. Moreover, in [2], the brain serotonin concentrations entry is given as “marked alterations”. Further, in data set [3] (hippocampus, to a lesser extent cortex), the “acetylcholine release and reuptake, number of choline uptake sites” value is “modulation”. In [3] (isolated Rb1), the acetylcholine release entry is listed as “stimulate acetylcholine release” and the synaptosomal choline uptake result is on record as “increase synaptosomal choline uptake”. In data set [4], the “expression of choline acetyltransferase and nerve growth factor messenger RNA” value is given as “increased expression”. The choline acetyltransferase levels result in data set [5] is “increase choline acetyltransferase levels”. Moreover, the “stress-induced increases in plasma corticosterone” value in [6] is on record as “inhibit”.
For `CC(C)=CCC[C@](C)(O[C@@H]1O[C@H](CO)[C@@H](O)[C@H](O)[C@H]1O)[C@H]1CC[C@]2(C)[C@@H]1[C@H](O)C[C@@H]1[C@@]3(C)CC[C@H](O[C@@H]4O[C@H](CO)[C@@H](O)[C@H](O)[C@H]4O[C@@H]4O[C@H](CO)[C@@H](O)[C@H](O)[C@H]4O)C(C)(C)[C@@H]3CC[C@]12C` [Rd, ginsenoside Rd], the “synaptosomal uptake of norepinephrine, dopamine, serotonin and GABA” value in data set [7] is “may inhibit”. Besides, the corticosterone secretion entry in data set [8] is “affect corticosterone secretion”.
`CC(C)=CCC[C@](C)(O[C@@H]1O[C@H](CO)[C@@H](O)[C@H](O)[C@H]1O)[C@H]1CC[C@]2(C)[C@@H]1[C@H](O)C[C@@H]1[C@@]3(C)CC[C@H](O)C(C)(C)[C@@H]3[C@@H](O[C@@H]3O[C@H](CO)[C@@H](O)[C@H](O)[C@H]3O[C@@H]3O[C@@H](C)[C@H](O)[C@@H](O)[C@H]3O)C[C@]12C` [Re, ginsenoside Re]: in data set [7], the “synaptosomal uptake of norepinephrine, dopamine, serotonin and GABA” value is on record as “may inhibit”.
For `CC(C)=CCC[C@](C)(O[C@@H]1O[C@H](CO)[C@@H](O)[C@H](O)[C@H]1O)[C@H]1CC[C@]2(C)[C@@H]1[C@H](O)C[C@@H]1[C@@]3(C)CC[C@H](O)C(C)(C)[C@@H]3[C@@H](O[C@@H]3O[C@H](CO)[C@@H](O)[C@H](O)[C@H]3O)C[C@]12C` [Rg1, ginsenoside Rg1], the brain serotonin concentrations result in data set [2] is reported as “marked alterations”. In addition, the choline acetyltransferase levels entry in [5] is listed as “increase choline acetyltransferase levels”.
For the compound `CC(C)=CCC[C@](C)(O)[C@H]1CC[C@]2(C)[C@@H]1[C@H](O)C[C@@H]1[C@@]3(C)CC[C@H](O)C(C)(C)[C@@H]3[C@@H](O[C@@H]3O[C@H](CO)[C@@H](O)[C@H](O)[C@H]3O[C@@H]3O[C@@H](C)[C@H](O)[C@@H](O)[C@H]3O)C[C@]12C` [Rg2, ginsenoside Rg2], the “interaction with nicotinic receptor subtypes” value in [9] is “direct interaction”.
